The text below walks through data of patent US11225480B2, “Malic enzyme inhibitors” (SUN PHARMA ADVANCED RESEARCH COMPANY LTD, priority 2019, dated 2022).

The structures appear in SMILES notation. Some results are limits rather than exact numbers.

Assay type in all cases: biochemical
One assay concerns the target T1, human ME1 enzyme (Homo sapiens, UniProt P48163).
T1 sequence (P48163 1-572): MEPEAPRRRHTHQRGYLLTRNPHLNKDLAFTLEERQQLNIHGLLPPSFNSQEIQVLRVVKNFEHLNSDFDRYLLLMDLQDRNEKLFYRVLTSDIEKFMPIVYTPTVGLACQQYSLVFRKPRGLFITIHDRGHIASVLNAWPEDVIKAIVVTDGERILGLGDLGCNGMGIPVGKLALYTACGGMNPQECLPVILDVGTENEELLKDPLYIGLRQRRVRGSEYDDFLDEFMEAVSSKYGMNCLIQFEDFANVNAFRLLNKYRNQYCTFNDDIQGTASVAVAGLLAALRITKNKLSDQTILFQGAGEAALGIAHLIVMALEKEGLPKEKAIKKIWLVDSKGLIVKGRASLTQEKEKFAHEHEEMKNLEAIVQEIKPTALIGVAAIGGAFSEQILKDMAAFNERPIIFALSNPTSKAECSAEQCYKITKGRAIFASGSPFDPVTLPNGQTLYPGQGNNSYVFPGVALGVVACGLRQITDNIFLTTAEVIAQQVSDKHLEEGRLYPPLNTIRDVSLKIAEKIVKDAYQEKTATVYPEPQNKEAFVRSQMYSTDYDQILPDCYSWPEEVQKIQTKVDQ
Put plainly: ME1 inhibition assay (diaphorase/resazurin coupled fluorescence). To be noted: 10 μM compound concentration; read-out: Malic Enzyme 1 % inhibition (10 μM). As for the experimental part: ME1 catalyzes the oxidative decarboxylation of malate to pyruvate with conversion of the co-factor β-NADP+ to β-NADPH. In the fluorescence assay, a coupled reaction is set up where in an enzyme, Diaphorase, utilizes NADPH generated by ME1, to convert the dye resazurin to a fluorescent molecule resorufin. Resorufin has a characteristic fluorescence with excitation/emission at 540/600 nm (SLAS Discov., 2017 April 1:2472555217706649).
The enzyme activity inhibition assay is set up in a 200 μL final reaction volume in a 96-well plate. As per the experimental design, 2 μL of the compounds at 100× the desired concentration (10 μM) in DMSO were added to the respective wells with 178 μL of assay buffer (50 mM Tris-HCl pH 7.5, 10 mM MnCl2, 2 mM L-malate, 10 μM Resazurin and 0.01 mg/ml Diapharose). The 96-well plate was incubated on a plate shaker at room temperature for 15 minutes protected from light. The well contents were gently mixed by adding 10 μL of 20 nM human ME1 enzyme to the wells and the plate was incubated on a shaker at room temperature for 5 minutes protected from light. Suitable ‘enzyme only’ and ‘no enzyme’ controls were included in the experiment. The enzymatic reaction was started by adding 10 μL of 0.3 mM D-NADP+. The reaction was gently mixed and the plate was initially left on a shaker at room temperature for −7 minutes protected from light. Later, the plate was incubated without shaking at room temperature for 2 hours. At the end of 2 hours, the fluorescence of the wells was measured at excitation 540 nm and emission 600 nm. The % enzyme activity of the compounds is obtained by normalizing the data with enzyme only (100%) and no enzyme controls (0%) using GraphPad Prism software 7.04.

A further assay has as its target T2, human ME3 enzyme (Homo sapiens, UniProt Q16798).
T2 sequence (Q16798 1-604): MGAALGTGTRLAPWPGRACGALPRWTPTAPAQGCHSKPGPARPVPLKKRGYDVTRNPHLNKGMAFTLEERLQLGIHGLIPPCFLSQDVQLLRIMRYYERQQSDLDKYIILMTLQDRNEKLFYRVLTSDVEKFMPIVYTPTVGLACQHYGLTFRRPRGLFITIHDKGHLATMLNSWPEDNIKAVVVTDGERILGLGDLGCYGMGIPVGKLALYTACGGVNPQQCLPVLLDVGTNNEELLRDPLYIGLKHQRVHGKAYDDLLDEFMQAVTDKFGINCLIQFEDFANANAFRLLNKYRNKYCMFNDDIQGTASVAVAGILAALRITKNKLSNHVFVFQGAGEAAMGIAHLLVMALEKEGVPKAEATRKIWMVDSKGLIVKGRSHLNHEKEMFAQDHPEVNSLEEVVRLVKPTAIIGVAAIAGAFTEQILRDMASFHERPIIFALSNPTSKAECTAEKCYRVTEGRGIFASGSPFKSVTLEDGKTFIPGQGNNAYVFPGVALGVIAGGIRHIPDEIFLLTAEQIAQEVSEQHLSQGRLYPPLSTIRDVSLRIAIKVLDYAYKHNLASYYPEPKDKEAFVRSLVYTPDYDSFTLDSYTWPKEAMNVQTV
Nature of the assay: ME3 inhibition assay (diaphorase/resazurin coupled fluorescence). To be noted: 10 μM compound concentration; read-out: Malic Enzyme 3 % inhibition (10 μM). A digest of the protocol: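 Coupled read-out: NADPH made by human ME3 (20 nM stock) drives diaphorase conversion of resazurin (50 μM) to resorufin; buffer 50 mM Tris-HCl pH 7.5, 10 mM MnCl2, 3 mM L-malate.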

The next assay deals with human ME2 enzyme (Homo sapiens, UniProt P23368). Nature of the assay: ME2 inhibition assay (diaphorase/resazurin coupled fluorescence). To be noted: 10 μM compound concentration; read-out: Malic Enzyme 2 % inhibition (10 μM). As for the experimental part:
ME2 catalyzes the oxidative decarboxylation of malate to pyruvate with conversion of the co-factor β-NAD+ to β-NADH. In the fluorescence assay, a coupled reaction is set up where in an enzyme, Diaphorase, utilizes NADH generated by ME2, to convert the dye resazurin to a fluorescent molecule resorufin. Resorufin has a characteristic fluorescence with excitation/emission at 540/600 nm (SLAS Discov., 2017 April 1:2472555217706649).
The enzyme activity inhibition assay is set up in a 200 μL final reaction volume in a 96-well plate. As per the experimental design, 2 μL of the compounds at 100× the desired concentration (10 μM) in DMSO were added to the respective wells with 178 μL of assay buffer (50 mM Tris-HCl pH 7.5, 10 mM MnCl2, 7 mM L-malate, 50 μM Resazurin and 0.025 mg/ml Diapharose). The 96-well plate was incubated on a plate shaker at room temperature for 15 minutes protected from light. The well contents were gently mixed by adding 10 μL of 60 nM human ME2 enzyme to the wells and the plate was incubated on a shaker at room temperature for 5 minutes protected from light. Suitable ‘enzyme only’ and ‘no enzyme’ controls were included in the experiment. The enzymatic reaction was started by adding 10 μL of 2 mM β-NAD+. The reaction was gently mixed and the plate was initially left on a shaker at room temperature for −7 minutes protected from light. Later, the plate was incubated without shaking at room temperature for 2 hours. At the end of 2 hours, the fluorescence of the wells was measured at excitation 540 nm and emission 600 nm. The % enzyme activity of the compounds is obtained by normalizing the data with enzyme only (100%) and no enzyme controls (0%) using GraphPad Prism software 7.04.

Sequence of human ME2 enzyme (P23368 19-584): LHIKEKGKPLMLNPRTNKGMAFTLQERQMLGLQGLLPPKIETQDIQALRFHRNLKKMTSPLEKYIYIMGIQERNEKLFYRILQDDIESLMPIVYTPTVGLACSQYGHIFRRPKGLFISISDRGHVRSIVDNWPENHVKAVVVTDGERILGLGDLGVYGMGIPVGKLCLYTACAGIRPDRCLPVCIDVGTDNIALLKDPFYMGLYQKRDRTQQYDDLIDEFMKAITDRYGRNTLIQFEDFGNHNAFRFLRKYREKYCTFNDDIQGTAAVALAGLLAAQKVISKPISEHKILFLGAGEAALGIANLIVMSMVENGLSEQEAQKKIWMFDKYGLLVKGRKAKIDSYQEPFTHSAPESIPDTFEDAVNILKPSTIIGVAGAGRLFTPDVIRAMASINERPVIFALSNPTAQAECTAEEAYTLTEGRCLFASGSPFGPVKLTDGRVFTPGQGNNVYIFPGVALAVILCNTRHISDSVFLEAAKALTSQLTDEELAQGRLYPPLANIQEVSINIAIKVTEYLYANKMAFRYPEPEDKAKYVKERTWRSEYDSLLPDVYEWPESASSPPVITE

As to `O=C(CCn1ccc2ccccc21)N1CCN(c2ccc(O)cn2)CC1` [I.135, 1-[4-(5-Hydroxy-pyridin-2-yl)-piperazin-1-yl]-3-indol-1-yl-propan-1-one], the inhibition at 10 µM at human ME1 enzyme was 70 to 89%; at human ME3 enzyme, more than 90%; at human ME2 enzyme, more than 90%.

As for `O=C(CCc1ccc(F)cc1F)N1CCN(c2ccc(O)cn2)CC1` [I.152, 3-(2,4-Difluoro-phenyl)-1-[4-(5-hydroxy-pyridin-2-yl)-piperazin-1-yl]-propan-1-one], the inhibition at 10 µM on human ME1 enzyme, at human ME3 enzyme and at human ME2 enzyme was more than 90% each time.

With `O=C(c1cn(CC2CC2)c2ccccc2c1=O)N1CCN(c2ccc(O)cn2)CC1` [I.59, 1-(Cyclo-propyl-methyl)-3-[4-(5-hydroxy-2-pyridyl)-piperazine-1-carbonyl]-quinolin-4-one], the results for the inhibition at 10 µM on human ME1 enzyme, at human ME3 enzyme and on human ME2 enzyme were 70 to 89%, more than 90% and 70 to 89%, respectively.

Consider `O=C(O)CCCC(=O)N1CCN(c2ccc(O)cn2)CC1` [I.70, 5-[4-(5-hydroxy-2-pyridyl)piperazin-1-yl]-5-oxo-pentanoic acid], for which the inhibition at 10 µM at human ME1 enzyme is 70 to 89%; on human ME3 enzyme, more than 90%; on human ME2 enzyme, 70 to 89%.

For `Cc1cccc(Cl)c1C(=O)N1CCN(c2ccc(O)cn2)CC1` [I.80, (2-Chloro-6-methylphenyl)-[4-(5-hydroxy-pyridin-2-yl)-piperazin-1-yl]-methanone], the inhibition at 10 µM at human ME1 enzyme, on human ME3 enzyme and at human ME2 enzyme was more than 90% each time.

Turning to `CN(CC(=O)N1CCN(c2ccc(O)cn2)CC1)CC12CC3CC(CC(C3)C1)C2` [I.96, 2-[1-Adamantyl-methyl-(methyl)-amino]-1-[4-(5-hydroxy-2-pyridyl)-piperazin-1-yl]ethanone], the values for the inhibition at 10 µM at human ME1 enzyme, at human ME3 enzyme and at human ME2 enzyme were 70 to 89%, more than 90% and 70 to 89%, respectively.

With `O=C(CCC1CC1)N1CCN(c2ccc(O)cn2)CC1` [I.140, 3-Cyclo-propyl-1-[4-(5-hydroxy-2-pyridyl)-piperazin-1-yl]propan-1-one], the inhibition at 10 µM on human ME1 enzyme, on human ME3 enzyme and on human ME2 enzyme was more than 90% throughout.

Turning to `C=CC(=O)NC(CC(=O)N1CCN(c2ccc(O)cn2)CC1)c1ccccc1` (stereo not drawn) [I.172, N-{3-[4-(5-Hydroxy-pyridin-2-yl)-piperazin-1-yl]-3-oxo-1-phenyl-propyl}-acrylamide], the figures for the inhibition at 10 µM at human ME1 enzyme, on human ME3 enzyme and on human ME2 enzyme were 50 to 69%, more than 90% and more than 90%, respectively.

For `CC(C)(CC(=O)N1CCN(c2ccc(O)cn2)CC1)c1ccc(F)cc1` [I.161, 3-(4-Fluoro-phenyl)-1-[4-(5-hydroxy-pyridin-2-yl)-piperazin-1-yl]-3-methyl-butan-1-one], the inhibition at 10 µM on human ME1 enzyme, on human ME3 enzyme and at human ME2 enzyme was more than 90% in each case.

`O=C(CCc1c2ccccc2cc2ccccc12)N1CCN(c2ccc(O)cc2)CC1` [I.53, 3-Anthracen-9-yl-1-[4-(4-hydroxy-phenyl)-piperazin-1-yl]-propan-1-one]: the inhibition at 10 µM on human ME1 enzyme, at human ME3 enzyme and on human ME2 enzyme was more than 90% in each case.

On to `O=C(c1cc2cc(F)ccc2[nH]1)N1CCN(c2ccc(O)cn2)CC1` [I.88], for which the inhibition at 10 µM on human ME1 enzyme was more than 90%; on human ME3 enzyme it was more than 90%; on human ME2 enzyme, 70 to 89%.

For the compound `O=C(Cc1ccc(C(F)(F)F)cc1)N1CCN(c2ccc(O)cc2)CC1` [I.28, 1-[4-(4-Hydroxy-phenyl)-piperazin-1-yl]-2-(4-trifluoro-methyl-phenyl)-ethanone], the inhibition at 10 µM on human ME1 enzyme and on human ME3 enzyme was more than 90% throughout.

As for `Cn1cc(C(=O)N2CCN(c3ccc(O)cn3)CC2)c2ccccc21` [I.71, [4-(5-Hydroxy-pyridin-2-yl)-piperazin-1-yl]-(1-methyl-1H-indol-3-yl)-methanone], the inhibition at 10 µM at human ME1 enzyme was more than 90%; on human ME3 enzyme, more than 90%; at human ME2 enzyme it was 70 to 89%.

For `O=C(N1CCN(c2ccc(O)cn2)CC1)C(O)(c1ccccc1)C1CCCCC1` (stereo not drawn) [I.95, 2-cyclohexyl-2-hydroxy-1-[4-(5-hydroxy-2-pyridyl)piperazin-1-yl]-2-phenyl-ethanone], the values for the inhibition at 10 µM on human ME1 enzyme, on human ME3 enzyme and at human ME2 enzyme were 70 to 89%, more than 90% and 70 to 89%, respectively.

As for `CC(C)(Sc1ccccc1Br)C(=O)N1CCN(c2ccc(O)cn2)CC1` [I.162, 2-(2-Bromo-phenyl-sulfanyl)-1-[4-(5-hydroxy-pyridin-2-yl)-piperazin-1-yl]-2-methyl-propan-1-one], the inhibition at 10 µM at human ME1 enzyme, at human ME3 enzyme and on human ME2 enzyme was more than 90% throughout.

In the case of `COc1cc(CC(=O)N2CCN(c3ccc(O)cc3)CC2)cc(OC)c1OC` [I.3, 1-[4-(4-Hydroxy-phenyl)-piperazin-1-yl]-2-(3,4,5-trimethoxy-phenyl)-ethanone], the inhibition at 10 µM at human ME1 enzyme and at human ME3 enzyme was more than 90% in each case.

Regarding `O=C(Cc1ccc(O)cc1)N1CCN(c2ccc(O)cc2)CC1` [I.4, 2-(4-Hydroxy-phenyl)-1-[4-(4-hydroxy-phenyl)-piperazin-1-yl]-ethanone], the inhibition at 10 µM at human ME1 enzyme and on human ME3 enzyme was more than 90% in each case.
